Where only a bound is given, the exact number is not on record here.

Broadly, the melting point is the temperature, or range, at which the solid turns liquid. For `Cc1cc(N2CC=C(C(N)=O)CC2)c2cc(C)c(-c3ccc(Cl)cc3Cl)n2n1` [Example 11, 1-[7-(2,4-Dichlorophenyl)-2,6-dimethylpyrrolo[1,2-b]pyridazin-4-yl]-1,2,3,6-tetrahydropyridine-4-carboxamide], the melting point was > 212 °C (dec.).

Consider `Cc1cc(N2CCC3(CC2)OCCO3)c2cc(C)c(-c3ccc(Cl)cc3Cl)n2n1` [Example 8, 8-[7-(2,4-Dichlorophenyl)-2,6-dimethylpyrrolo[1,2-b]pyridazin-4-yl]-1,4-dioxa-8-azaspiro[4,5]decane], for which the melting point lay in the range of 193.2 to 196.4 °C.

The compound `Cc1cc(N2CCC(=O)CC2)c2cc(C)c(-c3ccc(Cl)cc3Cl)n2n1` [Example 9, 1-[7-(2,4-Dichlorophenyl)-2,6-dimethylpyrrolo[1,2-b]pyridazin-4-yl]piperidin-4-one] registered a melting point of 169.7 to 171.3 °C.

On to `Cc1cc(N[C@@H]2CN(C(=O)OCc3ccccc3)C[C@@H]2O)c2cc(C)c(-c3ccc(Cl)cc3Cl)n2n1` [Example 1, Benzyl (3R,4S)-3-{[7-(2,4-dichlorophenyl)-2.6-dimethylpyrrolo[1,2-b]pyridazin-4-yl]amino}-4-hydroxypvrrolidine-1-carboxylate], for which the melting point was in the range of 105 to 110 °C.

The record behind these values is US20040242587A1, “Pyrrolo[1,2-b]pyridazine compounds” (Pfizer Inc, priority 2003, published 2004).
